The test system of test [1] is FLAG-KIF5B-RETv1S/NIH3T3 cells. The test can be described thus: Anchorage-independent cell growth inhibition in spheroid plate (CellTiter-Glo). Type of test: cell-based. The following applies: Mus musculus, 120 h, final concentration 1.1 μM, 96-well spheroid plate, cultured 5 days, DMSO = 0%, medium only = 100%, read-out: growth inhibition rate (%). On the procedure:
The measurement (colony method or the like) of anchorage-independent cell growth is known to be a system for examining the anticancer action (pharmacological effect) of a compound (“Clinical Oncology” 2nd edition, Japanese Journal of Cancer & Chemotherapy). As a method that measures the growth of non-adherent cells unlike the colony method, there is a method using a spheroid plate as described above.
In addition, a plate to which only a medium was added was prepared as a […]. […] As a […], DMSO as solvent of the compound was added thereto at the same concentration (0.1%) as the compound. Thereafter, the cells were cultured for 5 days at 37° C. in the presence of 5% CO2, and the cell counting reagent (CellTiter-Gio™ Luminescent Cell Viability Assay; Promega Corporation) was added thereto, followed by stirring for 20 minutes. Thereafter, the cells were measured using a luminescence measurement instrument (Envision; PerkinElmer Inc.). The values of positive control and negative control were regarded as 100% inhibition value and 0% inhibition value respectively to calculate the growth inhibition rate (%) of the respective compounds.
For orientation: In ATP-based viability assays light output follows the ATP content of the culture.

Test [2] deals with T1, KIF5B-RET fusion polypeptide v1S (Homo sapiens, UniProt P07949).
T1 sequence (P07949 with tags, fused parts or gaps isoform P07949-2): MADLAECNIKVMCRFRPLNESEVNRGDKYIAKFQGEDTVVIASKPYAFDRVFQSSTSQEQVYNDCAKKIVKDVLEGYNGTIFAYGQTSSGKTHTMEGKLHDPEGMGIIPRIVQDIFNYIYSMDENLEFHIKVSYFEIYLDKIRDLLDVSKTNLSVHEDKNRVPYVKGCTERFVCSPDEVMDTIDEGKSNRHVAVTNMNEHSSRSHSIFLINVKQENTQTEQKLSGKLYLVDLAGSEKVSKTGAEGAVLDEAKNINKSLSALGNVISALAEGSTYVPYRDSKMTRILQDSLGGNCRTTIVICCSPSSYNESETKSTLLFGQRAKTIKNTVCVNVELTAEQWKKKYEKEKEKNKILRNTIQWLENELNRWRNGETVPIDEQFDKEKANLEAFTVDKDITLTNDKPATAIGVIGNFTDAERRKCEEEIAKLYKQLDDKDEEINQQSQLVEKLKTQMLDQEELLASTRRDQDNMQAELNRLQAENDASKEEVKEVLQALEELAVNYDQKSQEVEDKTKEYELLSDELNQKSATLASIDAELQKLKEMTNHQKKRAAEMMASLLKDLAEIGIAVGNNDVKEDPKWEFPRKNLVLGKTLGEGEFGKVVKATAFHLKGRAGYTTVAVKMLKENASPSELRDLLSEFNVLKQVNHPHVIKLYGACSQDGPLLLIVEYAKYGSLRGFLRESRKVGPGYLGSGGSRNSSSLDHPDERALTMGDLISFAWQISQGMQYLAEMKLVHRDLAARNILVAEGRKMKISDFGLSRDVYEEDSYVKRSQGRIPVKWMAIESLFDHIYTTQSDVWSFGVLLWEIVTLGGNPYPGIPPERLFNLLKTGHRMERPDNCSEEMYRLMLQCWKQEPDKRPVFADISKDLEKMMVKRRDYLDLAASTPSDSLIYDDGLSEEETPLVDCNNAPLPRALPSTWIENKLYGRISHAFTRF
The test can be described thus: cell-based. Conditions: NIH3T3, read-out: phosphorylation inhibition rate.

In general, inhibition refers to the change of the read-out against control, counted positive when it falls. Regarding `CNC(=O)c1cc(Oc2ccc(NC(=O)Nc3ccc(Cl)c(C(F)(F)F)c3)cc2)ccn1` [Sorafenib], the inhibition at 1.1 µM in test [1] worked out at 96%.

`CCN(CC)CCNC(=O)c1c(C)[nH]c(/C=C2\C(=O)Nc3ccc(F)cc32)c1C` [Sunitinib]: the inhibition at 1.1 µM in test [1] amounted to 77%. The inhibition at 1 µM in test [2] turned out to be 57%.

As for `COc1cc2c(Nc3ccc(Br)cc3F)ncnc2cc1OCC1CCN(C)CC1` [Vandetanib], in test [1], the inhibition at 1.1 µM amounted to 83%.

The values above are taken from patent US20130137111A1, “DETECTION METHOD OF NOVEL RET FUSION” (Astellas Pharma Inc., priority 2010, published 2013).
